From patent publication US4260774A, “5-Carbamoyl imidazoles” (Sumitomo Chemical Company, Limited, priority 1976, dated 1981)

Tests used:
[1] = in words; literature; cited from earlier work
L5178Y cells = settings: in words; literature; suggested due to metabolic conversion to bredinin; cited from earlier work
Sarcoma 180 = assay: Antitumor effect on mouse experimental tumor Sarcoma 180 (solid); format: in vivo, mouse (ICR-JCL male mice); settings: Sarcoma-180, ip, 240 h; for inhibition in vivo at 100 mg/kg: 100 mg/kg i.p.
Description: ICR-JCL male mice, 5 weeks old, weighing between 23 and 26 grams were used. Each test group was composed of 5 mice. One million cells of Sarcoma 180 were injected intramusculary in hind leg. The drug was administered intrapenitoneally at day 1, 3, 5, 7 and 9. After killing the mice at day 10, tumors were removed and weighed. The tumor inhibitory ratio was calculated according to the following formula. [formula]

[2] = tested on: plaque forming cell (PFC); assay: Immunosuppressive activity: plaque forming cell (PFC) number by Cunningham method in mice injected with sheep red blood cells; format: in vivo; settings: days 0 to 3, measured day 4
Description: The immunosuppressive activities of the compounds of the present invention, Azathioprine and 6-mercaptopurine are given in the following table. After a sheep red blood cell preparation (SRBC) was injected in mice, the compounds were administered orally once a day on days 0 to 3. The plaque forming cell (PFC) number was measured on day 4 by Cunningham method. [Cunningham A. J. et al. Immunol. 14, 599 (1968)]

mouse leukemia P388 = assay: Antitumor effect on mouse experimental tumor P388 leukemia; format: in vivo, CDF1 mouse; settings: day 1 & 5
Description: The antitumor activities of the compounds of the present invention were estimated according to the methods described in "Oyo-Yakuri," Vol. 14, P. 521 (in Japanese).
animals: CDF1 mouse (6 mice/group)
tumor: mouse leukemia P388
inoculum size: 10^6 cells/mouse
day of administration: day 1 & 5
administration route: i.p.
evaluation: median survival time

lymphatic leukemia L1210 = settings: in words; literature; cited from earlier work
[3] = day 1, 3, 5, 7 and 9, tumor weight day 10, read-out: Inhibition Ratio (%) Sarcoma 180 (solid)
[4] = read-out: Inhibition Ratio (%) Sarcoma 180 (solid)

NC(=O)c1nc[nH]c1O [4-carbamoylimidazolium-5-olate]
immunosuppressive activity / effects [1]: immunosuppressive effects
growth inhibitory effects on L5178Y cells (L5178Y cells): growth inhibitory effects

N#Cc1cccc(C(=O)Oc2nc[nH]c2C(N)=O)c1 [5-Carbamoyl-1H-imidazol-4-yl m-cyanobenzoate]
inhibition in vivo at 100 mg/kg (Sarcoma 180; [3]): 38.3%

NC(=O)c1[nH]cnc1OC(=O)c1ccc(F)cc1 [5-Carbamoyl-1H-imidazol-4-yl p-fluorobenzoate]
inhibition in vivo at 100 mg/kg (Sarcoma 180; [3]): 36%

Cc1ccc(C(=O)Oc2nc[nH]c2C(N)=O)cc1 [5-Carbamoyl-1H-imidazol-4-yl p-methylbenzoate]
inhibition in vivo at 100 mg/kg (Sarcoma 180; [3]): 38.3%

NC(=O)c1[nH]cnc1OC(=O)c1ccc([N+](=O)[O-])cc1 [5-Carbamoyl-1H-imidazol-4-yl p-nitrobenzoate]
inhibition in vivo at 100 mg/kg (Sarcoma 180; [3]): 44.7%

NC(=O)c1[nH]cnc1OC(=O)c1ccccc1 [5-Carbamoyl-1H-imidazole-4-yl benzoate, 5-carbamoyl-1H-imidazol-4-yl benzoate]
Effects PFC/spleen × 10^-4 ([2]; 25 mg/kg/day p.o.): 19.88 ± 6.06 PFC/spleen × 10^-4
Suppression (%) ([2]; 25 mg/kg/day p.o.): 68.1%
Effects PFC/spleen × 10^-4 ([2]; 100 mg/kg/day p.o.): 8.63 ± 2.61 PFC/spleen × 10^-4
Suppression (%) ([2]; 100 mg/kg/day p.o.): 89.4%

O=c1[nH]cc(F)c(=O)[nH]1 [5-Fluorouracil, reference compound]
inhibition in vivo at 30 mg/kg (Sarcoma 180; [4]): 66%

NC(=O)c1[nH]cnc1OC(=O)C12CC3CC(CC(C3)C1)C2 [5-carbamoyl-1H-imidazol-4-yl 1-adamantanecarboxylate]
Effects PFC/spleen × 10^-4 ([2]; 25 mg/kg/day p.o.): 14.19 ± 2.24 PFC/spleen × 10^-4
Suppression (%) ([2]; 25 mg/kg/day p.o.): 77.2%
Effects PFC/spleen × 10^-4 ([2]; 100 mg/kg/day p.o.): 5.19 ± 1.29 PFC/spleen × 10^-4
Suppression (%) ([2]; 100 mg/kg/day p.o.): 93.6%
inhibition in vivo at 50 mg/kg (Sarcoma 180; 50 mg/kg i.p., day 1, 3, 5, 7 and 9, tumor weight day 10, read-out: Inhibition Ratio (%) Sarcoma 180 (solid)): 53.9%
inhibition in vivo at 100 mg/kg (Sarcoma 180; [3]): 71.4%
inhibition in vivo at 200 mg/kg (Sarcoma 180; 200 mg/kg i.p., day 1, 3, 5, 7 and 9, tumor weight day 10, read-out: Inhibition Ratio (%) Sarcoma 180 (solid)): 88.8%
inhibition in vivo at 206 mg/kg (Sarcoma 180; 206 mg/kg i.p., day 1, 3, 5, 7 and 9, tumor weight day 10, read-out: Inhibition Ratio (%) Sarcoma 180 (solid)): 100%
Evaluation T/C (%) P388 (median survival time) (mouse leukemia P388; 100 mg/kg i.p.): 112%
Evaluation T/C (%) P388 (median survival time) (mouse leukemia P388; 200 mg/kg i.p.): 120%
Evaluation T/C (%) P388 (median survival time) (mouse leukemia P388; 400 mg/kg i.p.): 138%

NC(=O)c1[nH]cnc1OC(=O)c1ccc2c(c1)OCO2 [5-carbamoyl-1H-imidazol-4-yl 3,4-methylenedioxybenzoate]
inhibition in vivo at 100 mg/kg (Sarcoma 180; [3]): 65.1%

NC(=O)c1[nH]cnc1OC(=O)c1ccc(Br)cc1 [5-carbamoyl-1H-imidazol-4-yl p-bromobenzoate]
inhibition in vivo at 100 mg/kg (Sarcoma 180; [3]): 66%

NC(=O)c1[nH]cnc1OC(=O)c1ccc(Cl)cc1 [5-carbamoyl-1H-imidazol-4-yl p-chlorobenzoate]
Effects PFC/spleen × 10^-4 ([2]; 25 mg/kg/day p.o.): 22.06 ± 5.37 PFC/spleen × 10^-4
Suppression (%) ([2]; 25 mg/kg/day p.o.): 64.6%
inhibition in vivo at 100 mg/kg (Sarcoma 180; [3]): 49.1%

Sc1ncnc2nc[nH]c12 [6-Mercaptopurine, 6-mercaptopurine, reference compound]
Effects PFC/spleen × 10^-4 ([2]; 25 mg/kg/day p.o.): 30.78 ± 6.28 PFC/spleen × 10^-4
Suppression (%) ([2]; 25 mg/kg/day p.o.): 60.2%

Cn1cnc([N+](=O)[O-])c1Sc1ncnc2nc[nH]c12 [Azathioprine, 6-(1-methyl-4-nitro-5-imidazolyl)mercaptopurine, reference compound]
Effects PFC/spleen × 10^-4 ([2]; 100 mg/kg/day p.o.): 26.73 PFC/spleen × 10^-4
Suppression (%) ([2]; 100 mg/kg/day p.o.): 81.6%

CO[C@@]12[C@H](COC(N)=O)C3=C(C(=O)C(C)=C(N)C3=O)N1C[C@@H]1N[C@@H]12 [Mitomycin C, reference compound]
inhibition in vivo at 2 mg/kg (Sarcoma 180; [4]): 74%

NC(=O)c1ncn([C@@H]2O[C@H](CO)[C@@H](O)[C@H]2O)c1O [bredinin, 4-carbamoyl-1-β-D-ribofuranosylimidazolium-5-olate]
immunosuppressive activity / effects [1]: has immunosuppressive activity
antitumor activity against lymphatic leukemia L1210 (lymphatic leukemia L1210): weak antitumor activity
